From patent EP2030621A1, “Novel substituted pyrimidines as cysteine protease inhibitors” (GLAXO GROUP LIMITED, priority 2007, dated 2009)
Where a name gives a salt, the structure may show the parent alone.

Tested on: Plasmodium falciparum parasite
Test: Whole cell assay: whole cell activity against the parasite
Type: cell-based
Details: not given
From the text: Compounds can be evaluated for whole cell actvity against the Plasmadium falciparum parasite according to the procedure described in Sijwali S. and Rosenthal P. J., (2004) Proceedings of the National Academy of Sciences of the United States of America (PNAS) 101(13), 4384-4389 (see in particular "Measurement of Parasite Growth rates and Inhibitor Sensitivity" on page 4385); IC50 values can be calculated as described in Singh A. and Rosenthal P. J., (2001) Antimicrobial Agents and Chemotherapy 45(3), 949-951 (see in particular page 950, first column); synchronised parasites can be prepared as described in Divo A. A. et al., (1985) Protozool. 32, 59-64. 3) In vitro models to evaluate activity against bone metastasis

With `CN1CCC(CN2CCN(Cc3ccc(C(=O)NN(c4nc(C#N)ncc4Br)C4CCCC4)cc3)CC2)CC1` [Example 7, N'-(5-bromo-2-cyano-4-pyrimidinyl)-N'-cyclopentyl-4-({4-[(1-methyl-4-piperidinyl)methyl]-1-piperazinyl}methyl)benzohydrazide trifluoroacetate] as the compound, how does the IC50 read?
The IC50 was 1 to 2.5 nM.

With `CN1CCN(c2ncc(C(=O)NN(c3nc(C#N)ncc3Cl)C3CCCC3)s2)CC1` [Example 77] as the compound, how does the IC50 read?
Its IC50 is 15 to 150 nM.

`CC(=O)N1CCC(N(NC(=O)OC(C)(C)C)c2nc(C#N)ncc2Br)CC1` [Example 79, 1,1-dimethylethyl 2-(1-acetyl-4-plperidinyl)-2-(5-bromo-2-cyano-4-pyrimidinyl)hydrazinecarboxylate] was tested. Which IC50 did it give?
Its IC50 is 15 to 150 nM.

For `CN1CCN(C2CCN(Cc3ccc(C(=O)NN(c4nc(C#N)ncc4Cl)C4CCCCC4)cc3)CC2)CC1` [Example 40, N'-(5-chloro-2-cyano-4-pyrimidinyl)-N'-cyclohexyl-4-{[4-(4-methyl-1-piperazinyl)-1-piperidinyl]methyl}benzohydrazide], which IC50 is on record?
Its IC50 is 2.5 to 15 nM.

Same assay, conditions: Plasmodium falciparum

With `CN1CCN(C(=O)C2CCN(Cc3ccc(C(=O)NN(c4nc(C#N)ncc4Br)C4CCOCC4)cc3)CC2)CC1` [Example 32, N'-(5-Bromo-2-cyano-4-pyrimidinyl)-4-({4-[(4-methyl-1-piperazinyl)carbonyl]-1-piperidinyl}methyl)-N'-(tetrahydro-2H-pyran-4-yl)benzohydrazide trifluoroacetate] as the compound, how does the IC50 read?
The IC50 was 15 to 150 nM.

For `CN1CCN(C2CCN(Cc3ccc(C(=O)NN(c4nc(C#N)ncc4Br)C4CCCCC4)cc3)CC2)CC1` [Example 17, N'-(5-bromo-2-cyano-4-pyrimidinyl)-N'-cyclohexyl-4-{[4-(4-methyl-1-piperazinyl)-1-piperidinyl]methyl}benzohydrazide trifluoroacetate], which IC50 is on record?
The IC50 was 2.5 to 15 nM.

For `N#Cc1ncc(Cl)c(N(NC(=O)c2ccc(CN3CCC(O)CC3)cc2)C2CCCC2)n1` [Example 70, N'-(5-chloro-2-cyano-4-pyrimidinyl)-N'-cyclopentyl-4-[(4-hydroxy-1-piperidinyl)methyl]benzohydrazide trifluoroacetate], which IC50 is on record?
Its IC50 is 15 to 150 nM.

With `CN1CCN(Cc2ccc(C(=O)NN(c3nc(C#N)ncc3Cl)C3CCOCC3)cc2)CC1` [Example 67, N'-(5-chloro-2-cyano-4-pyrimidinyl)-4-[(4-methyl-1-piperazinyl)methyl]-N'-(tetrahydro-2H-pyran-4-yl)benzohydrazide trifluoroacetate] as the compound, how does the IC50 read?
Its IC50 is 15 to 150 nM.

How did the IC50 turn out when `CCCCN(C)Cc1ccc(C(=O)NN(c2nc(C#N)ncc2Cl)C2CCCC2)cc1` [Example 57, 4-{[butyl(methyl)amino]methyl}-N'-(5-chloro-2-cyano-4-pyrimidinyl)-N'-cyclopentylbenzohydrazide trifluoroacetate] was run?
Its IC50 is 15 to 150 nM.

With `CN(CCC1OCCO1)Cc1ccc(C(=O)NN(c2nc(C#N)ncc2Cl)C2CCCC2)cc1` [Example 61, N'-(5-chloro-2-cyano-4-pyrimidinyl)-N'-cyclopentyl-4-{[[2-(1,3-dioxolan-2-yl)ethyl](methyl)amino]methyl}benzohydrazide trifluoroacetate] as the compound, how does the IC50 read?
The IC50 was 15 to 150 nM.

How did the IC50 turn out when `CN(CC(=O)N(C)C)Cc1ccc(C(=O)NN(c2nc(C#N)ncc2Cl)C2CCCC2)cc1` [Example 60, N^2-[(4-{[2-(5-chloro-2-cyano-4-pyrimidinyl)-2-cyclopentylhydrazino]carbonyl}phenyl)methyl]-N^1,N^1,N^2-trimethylglycinamide trifluoroacetate] was run?
Its IC50 is 15 to 150 nM.

Which IC50 does the source give for `CCCN(C)Cc1ccc(C(=O)NN(c2nc(C#N)ncc2Cl)C2CCCC2)cc1` [Example 55, N'-(5-chloro-2-cyano-4-pyrlmidinyl)-N'-cycyopentyl-4-{[methyl(propyl)amino]methyl}benzohydrazide trifluoroacetate] here?
Its IC50 is 15 to 150 nM.

With `CN1CCCC(CN2CCN(Cc3ccc(C(=O)NN(c4nc(C#N)ncc4Br)C4CCCCC4)cc3)CC2)C1` (stereo not drawn) [Example 25, N'-(5-bromo-2-cyano-4-pyrimidinyl)-N'-cyclohexyl-4-({4-[(1-methyl-3-piperidinyl)methyl]-1-piperazinyl}methyl)benzohydrazide trifluoroacetate] as the compound, how does the IC50 read?
The IC50 was 2.5 to 15 nM.

For `CC1CCC(N(NC(=O)c2ccc(CN3CCN(C)CC3)cc2)c2nc(C#N)ncc2Br)C1` (mixture of isomers) [Example 26, N'-(5-bromo-2-cyano-4-pyrimidinyl)-N'-(3-methylcyclopentyl)-4-[(4-methyl-1-piperazinyl)methyl]benzohydrazide trifluoroacetate], which IC50 is on record?
Its IC50 is 15 to 150 nM.

How did the IC50 turn out when `N#Cc1ncc(Br)c(N(NC(=O)c2ccc(CN3CCC(N4CCOCC4)CC3)cc2)C2CCCC2)n1` [Example 6, N'-(5-bromo-2-cyano-4-pyrimidinyl)-N'-cyclopentyl-4-{[4-(4-morpholinyl)-1-piperidinyl]methyl}benzohydrazide trifluoroacetate] was run?
Its IC50 is 15 to 150 nM.

How did the IC50 turn out when `CC(C)N(Cc1ccc(C(=O)NN(c2nc(C#N)ncc2Cl)C2CCCC2)cc1)C(C)C` [Example 72, trifluoroacetate] was run?
Its IC50 is 2.5 to 15 nM.

How did the IC50 turn out when `CN1CCCC(CN2CCN(Cc3ccc(C(=O)NN(c4nc(C#N)ncc4Br)C4CCOCC4)cc3)CC2)C1` (stereo not drawn) [Example 31, N'-(5-Bromo-2-cyano-4-pyrimidinyl)-4-({4-[(1-methyl-3-pipendinyl)methyl]-1-piperazinyl}methyl)-N'-(tetrahydro-2H-pyran-4-yl)benzohydrazide trifluoroacetate] was run?
Its IC50 is 15 to 150 nM.

With `CN1CCC(CN2CCN(Cc3ccc(C(=O)NN(c4nc(C#N)ncc4Br)C4CCOCC4)cc3)CC2)CC1` [Example 30, N'-(5-Bromo-2-cyano-4-pyrimidiny)-4-({4-[(1-methyl-4-piperidinyl)methyl]-1-piperazinyl}methyl)-N'-(tetrahydro-2H-pyran-4-yl)benzohydrazide trifluoroacetate] as the compound, how does the IC50 read?
The IC50 was 15 to 150 nM.

For `CC(C)N(Cc1ccc(C(=O)NN(c2nc(C#N)ncc2Cl)C2CCCC2)cc1)C1CCCCC1` [Example 75, N'-(5-chloro-2-cyano-4-pyrimidinyl)-4-{[cyclohexyl(1-methylethyl)amino]methyl}-N'-cyclopentylbenzohydrazide trifluoroacetate], which IC50 is on record?
The IC50 was 15 to 150 nM.

For `N#Cc1ncc(Br)c(N(NC(=O)c2ccc(CN3CCC(N4CCOCC4)CC3)cc2)C2CCCCC2)n1` [Example 18, N'-(5-bromo-2-cyano-4-pyrimidinyl)-N'-cyclohexyl-4-{[4-(4-morpholinyl)-1-piperidinyl]methyl}benzohydrazide trifluoroacetate], which IC50 is on record?
The IC50 was 15 to 150 nM.

Which IC50 does the source give for `CN1CCC(CN2CCN(Cc3ccc(C(=O)NN(c4nc(C#N)ncc4Br)C4CCCCC4)cc3)CC2)CC1` [Example 19, N'-(5-bromo-2-cyano-4-pyrimidinyl)-N'-cyclohexyl-4-({4-[(1-methyl-4-piperidinyl)methyl]-1-piperazinyl}methyl)benzohydrazide trifluoroacetate] here?
The IC50 was 2.5 to 15 nM.

How did the IC50 turn out when `CCN(Cc1ccc(C(=O)NN(c2nc(C#N)ncc2Cl)C2CCCC2)cc1)C(C)C` [Example 68, N'-(5-chloro-2-cyano-4-pyrimidinyl)-N'-cyclopentyl-4-{[ethyl(1-methylethyl)amino]methyl}benzohydrazide trifluoroacetate] was run?
Its IC50 is 2.5 to 15 nM.

Which IC50 does the source give for `CN1CCN(C(=O)C2CCN(Cc3cccc(C(=O)NN(c4nc(C#N)ncc4Br)C4CCCC4)c3)CC2)CC1` [Example 12, N'-(5-bromo-2-cyano-4-pyrimidinyl)-N'-cyclopentyl-3-({4-[(4-methyl-1-piperazinyl)carbonyl]-1-piperidinyl}methyl)benzohydrazide trifluoroacetate] here?
Its IC50 is 2.5 to 15 nM.

For `CCN(Cc1ccc(C(=O)NN(c2nc(C#N)ncc2Cl)C2CCCC2)cc1)C1CCCCC1` [Example 69, N'-(5-chloro-2-cyano-4-pyrimidinyl)-4-{[cyclohexyl(ethyl)amino]methyl}-N'-cyclopentylbenzohydrazide trifluoroacetate], which IC50 is on record?
Its IC50 is 2.5 to 15 nM.

`CN(CCO)Cc1ccc(C(=O)NN(c2nc(C#N)ncc2Cl)C2CCCC2)cc1` [Example 58, N'-(5-chloro-2-cyano-4-pyrimidinyl)-N'-cyclopentyl-4-{[(2-hydroxyethy)(methyl)amino]methyl}benzohydrazide trifluoroacetate] was tested. Which IC50 did it give?
Its IC50 is 15 to 150 nM.

Which IC50 does the source give for `CN1CCN(c2ccc(C(=O)NN(c3nc(C#N)ncc3Cl)C3CCCC3)cc2)CC1` [Example 52, N'-(5-chloro-2-cyano-4-pyrimidinyl)-N'-cyclopentyl-4-(4-methyl-1-piperazinyl)benzohydrazide trifluoroacetate] here?
The IC50 was 15 to 150 nM.

How did the IC50 turn out when `CN1CCN(C2CCN(Cc3cccc(C(=O)NN(c4nc(C#N)ncc4Br)C4CCCC4)c3)CC2)CC1` [Example 11, N'-(5-bromo-2-cyano-4-pyrimidinyl)-N'-cyclopentyl-3-{[4-(4-methyl-1-piperazinyl)-1-piperidinyl]methyl}benzohydrazide trifluoroacetate] was run?
Its IC50 is 2.5 to 15 nM.

Which IC50 does the source give for `CN1CCN(Cc2ccc(-c3cncc(C(=O)NN(c4nc(C#N)ncc4Br)C4CCCC4)c3)cc2)CC1` [Example 45, N'-(5-bromo-2-cyano-4-pyrimidinyl)-N'-cyclopentyl-5-{4-[(4-methyl-1-piperazinyl)methyl]phenyl}-3-pyridinecarbohydrazide trifluoroacetate] here?
Its IC50 is 15 to 150 nM.

Which IC50 does the source give for `CN(C)Cc1ccc(C(=O)NN(c2nc(C#N)ncc2Cl)C2CCCC2)cc1` [Example 54, N'-(5-chloro-2-cyano-4-pyrimidinyl)-N'-cyclopentyl-4-[(dimethylamino)methyl]benzohydrazide trifluoroacetate] here?
The IC50 was 15 to 150 nM.

`CN1CCC(CN2CCN(Cc3cccc(C(=O)NN(c4nc(C#N)ncc4Br)C4CCCCC4)c3)CC2)CC1` [Example 28, N'-(5-bromo-2-cyano-4-pyrimidinyl)-N'-cyclohexyl-3-({4-[(1-methyl-4-piperidinyl)methyl]-1-piperazinyl}methyl)benzohydrazide trifluoroacetate] was tested. Which IC50 did it give?
Its IC50 is 2.5 to 15 nM.
